Reference: ChEMBL document CHEMBL5230129, “Antibacterial activities with the structure-activity relationship of coumarin derivatives” (2020)
≈ marks a conversion by molar mass, not a printed value. Values belong to the compound of their own block, whether it stands above or below them.

How the values were obtained:
Type in all cases: functional
[1] = tested on: Klebsiella pneumoniae; experiment: Antibacterial activity against Klebsiella pneumoniae assessed as zone of inhibition incubated for 24 hrs by disk diffusion assay
[2] = tested on: Staphylococcus aureus; experiment: Antibacterial activity against Staphylococcus aureus assessed as inhibition of bacterial growth by broth micro dilution assay
[3] = tested on: Bacillus; experiment: Antibacterial activity against Bacillus assessed as inhibition of bacterial growth by broth micro dilution assay
[4] = tested on: Escherichia coli; experiment: Antibacterial activity against Escherichia coli assessed as inhibition of bacterial growth by broth micro dilution assay
[5] = tested on: Pseudomonas; experiment: Antibacterial activity against Pseudomonas assessed as zone of inhibition
[6] = tested on: Escherichia coli; experiment: Antibacterial activity against Escherichia coli MTCC 443 assessed as inhibition of bacterial growth incubated for 18 to 20 hrs by broth microdilution assay; details: time 18-20 hrs
[7] = tested on: Staphylococcus aureus; experiment: Antibacterial activity against Staphylococcus aureus MTCC 96 assessed as inhibition of bacterial growth incubated for 18 to 20 hrs by broth microdilution assay; details: time 18-20 hrs
[8] = tested on: Enterococcus faecalis; experiment: Antibacterial activity against Enterococcus faecalis PCM 2673 assessed as inhibition of bacterial growth incubated for 24 hrs by microbroth dilution assay
[9] = tested on: Escherichia coli; experiment: Antibacterial activity against Escherichia coli ATCC 8739 assessed as inhibition of bacterial growth incubated for 24 hrs by microbroth dilution assay
[10] = tested on: Escherichia coli; experiment: Antibacterial activity against Escherichia coli ATCC 25922 assessed as zone of inhibition incubated for 24 hrs by paper disk method
[11] = tested on: Pseudomonas aeruginosa; experiment: Antibacterial activity against Pseudomonas aeruginosa ATCC 27853 assessed as zone of inhibition incubated for 24 hrs by paper disk method
[12] = tested on: Staphylococcus aureus; experiment: Antibacterial activity against Staphylococcus aureus assessed as zone of inhibition incubated for 3 days by cup plate agar diffusion assay; details: time 3 day
[13] = tested on: Bacillus subtilis; experiment: Antibacterial activity against Bacillus subtilis assessed as zone of inhibition incubated for 3 days by cup plate agar diffusion assay; details: time 3 day
[14] = tested on: Escherichia coli; experiment: Antibacterial activity against Escherichia coli assessed as zone of inhibition incubated for 3 days by cup plate agar diffusion assay; details: time 3 day
[15] = tested on: Pseudomonas aeruginosa; experiment: Antibacterial activity against Pseudomonas aeruginosa assessed as zone of inhibition incubated for 3 days by cup plate agar diffusion assay; details: time 3 day
[16] = tested on: Escherichia coli; experiment: Antibacterial activity against Escherichia coli 1411 assessed as inhibition of bacterial growth incubated for 24 hrs by two-fold serial dilution method
[17] = tested on: Escherichia coli; experiment: Antibacterial activity against Escherichia coli SM1411 assessed as inhibition of bacterial growth incubated for 24 hrs by two-fold serial dilution method
[18] = tested on: Bacillus subtilis; experiment: Antibacterial activity against Bacillus subtilis assessed as inhibition of bacterial growth relative to control
[19] = tested on: Escherichia coli; experiment: Antibacterial activity against Escherichia coli assessed as inhibition of bacterial growth relative to control
[20] = tested on: Staphylococcus aureus; experiment: Antibacterial activity against Staphylococcus aureus assessed as inhibition of bacterial growth by broth dilution assay
[21] = tested on: Bacillus subtilis; experiment: Antibacterial activity against Bacillus subtilis assessed as inhibition of bacterial growth by broth dilution assay

Structure (SMILES): Cc1cc(=O)oc2cc(OCc3nnc(Nc4ccc(Br)cc4)s3)ccc12
inhibition zone (IZ) [1]: 16 mm

Structure (SMILES): O=c1cc(-c2nc3ccccc3[nH]2)c2ccc3ccccc3c2o1
inhibition zone (IZ) [5]: 4.2 mm

Structure (SMILES): Cc1ccc2c(C3NNC(=O)N3)cc(=O)oc2c1C (centres undefined)
MIC [2]: 12.6 µg/mL (≈ 48.6 µM) | MIC [3]: 3.12 µg/mL (≈ 12 µM) | MIC [4]: 25 µg/mL (≈ 96.4 µM)

Structure (SMILES): COc1ccc(Nc2nnc(COc3ccc4c(C)cc(=O)oc4c3)s2)cc1
inhibition zone (IZ) [1]: 15 mm

Structure (SMILES): O=C(COc1cc(=O)oc2ccccc12)NC1CCCCCC1
inhibition zone (IZ) [10]: 11 mm | inhibition zone (IZ) [11]: 10 mm

Structure (SMILES): Cc1ccc2oc(=O)cc(-c3nc4ccccc4[nH]3)c2c1
inhibition zone (IZ) [5]: 4.1 mm

Structure (SMILES): Cc1ccc(/C=C/C(=O)c2c(OCc3cnnn3Cc3ccccc3)ccc3c(C)cc(=O)oc23)cc1
inhibition zone (IZ) [12]: 17 mm | inhibition zone (IZ) [13]: 6 mm | inhibition zone (IZ) [14]: 14 mm | inhibition zone (IZ) [15]: 7 mm

Structure (SMILES): C[C@@H](NC(=O)COc1cc(=O)oc2ccccc12)c1ccccc1
inhibition zone (IZ) [10]: 12 mm | inhibition zone (IZ) [11]: 10 mm

Structure (SMILES): COC(=O)c1nnn(CC(=O)c2cc3cc(C)ccc3oc2=O)c1C(=O)OC
inhibition (INH) [18]: 83.3% | inhibition (INH) [19]: 83.3%

Structure (SMILES): COc1cc(/C=C/C(=O)c2c(OCc3cnnn3Cc3ccccc3)ccc3c(C)cc(=O)oc23)cc(OC)c1OC
inhibition zone (IZ) [12]: 35 mm | inhibition zone (IZ) [13]: 15 mm | inhibition zone (IZ) [14]: 33 mm | inhibition zone (IZ) [15]: 14 mm

Structure (SMILES): Cc1cc(=O)oc2cc(OCc3nnc(Nc4ccc(Cl)cc4)s3)ccc12
inhibition zone (IZ) [1]: 15 mm

Structure (SMILES): COc1ccc2oc(=O)cc(-c3nc4ccccc4[nH]3)c2c1
inhibition zone (IZ) [5]: 4 mm

Structure (SMILES): COc1ccc(/C=C/C(=O)c2c(OCc3cnnn3Cc3ccccc3)ccc3c(C)cc(=O)oc23)cc1OC
inhibition zone (IZ) [12]: 32 mm | inhibition zone (IZ) [13]: 13 mm | inhibition zone (IZ) [14]: 31 mm | inhibition zone (IZ) [15]: 11 mm

Results, then the compound that gave them:

MIC [2]: 1.6 µg/mL (≈ 6.52 µM) | MIC [3]: 1.6 µg/mL (≈ 6.52 µM) | MIC [4]: 1.6 µg/mL (≈ 6.52 µM)
Structure (SMILES): Cc1ccc2c(C3NNC(=O)N3)cc(=O)oc2c1 (centres undefined)

MIC [6]: 50 µg/mL (≈ 86.2 µM) | MIC [7]: 250 µg/mL (≈ 431 µM)
Structure (SMILES): Cc1cc(=O)oc2cc(OC(=O)CNC3N=C(c4ccc(F)cc4)C=C(c4ccc(Cl)cc4)S3)c([N+](=O)[O-])cc12 (centres undefined)

MIC [6]: 500 µg/mL (≈ 801 µM) | MIC [7]: 100 µg/mL (≈ 160 µM)
Structure (SMILES): Cc1cc(=O)oc2cc(OC(=O)CNC3N=C(c4ccc(F)cc4)C=C(c4cccc(Br)c4)S3)c([N+](=O)[O-])cc12 (centres undefined)

MIC [8]: 50 µg/mL (≈ 157 µM) | MIC [9]: 1600 µg/mL (≈ 5010 µM)
Structure (SMILES): O=c1cc(OCc2cn(-c3ccccc3)nn2)c2ccccc2o1

MIC [6]: 250 µg/mL (≈ 392 µM) | MIC [7]: 200 µg/mL (≈ 314 µM)
Structure (SMILES): Cc1cc(=O)oc2cc(OC(=O)CNC3N=C(c4ccc(F)cc4)C=C(c4cccc(Oc5ccccc5)c4)S3)c([N+](=O)[O-])cc12 (centres undefined)

MIC [16]: > 70 µg/mL | MIC [17]: > 70 µg/mL
Structure (SMILES): O=c1oc2ccccc2cc1C1=NNC(c2ccc(Br)cc2)C1 (centres undefined)

MIC [16]: > 70 µg/mL | MIC [17]: > 70 µg/mL
Structure (SMILES): O=c1oc2ccccc2cc1C1=NNC(c2ccc(F)cc2)C1 (centres undefined)

MIC [20]: 3.12 µg/mL (≈ 8.78 µM) | MIC [21]: 0.2 µg/mL (≈ 0.563 µM)
Structure (SMILES): Cc1ccc2cc(-c3cc4cc(Br)ccc4oc3=O)oc2c1

MIC [8]: 400 µg/mL (≈ 1190 µM) | MIC [9]: 1600 µg/mL (≈ 4740 µM)
Structure (SMILES): O=c1cc(OCc2cn(-c3ccc(F)cc3)nn2)c2ccccc2o1

MIC [2]: 1.6 µg/mL (≈ 6.52 µM) | MIC [3]: 0.8 µg/mL (≈ 3.26 µM) | MIC [4]: 0.8 µg/mL (≈ 3.26 µM)
Structure (SMILES): Cc1ccc2oc(=O)cc(C3NNC(=O)N3)c2c1 (centres undefined)

MIC [2]: 0.8 µg/mL (≈ 3.06 µM) | MIC [3]: 3.12 µg/mL (≈ 11.9 µM) | MIC [4]: 1.6 µg/mL (≈ 6.12 µM)
Structure (SMILES): COc1ccc2c(C3NNC(=O)N3)cc(=O)oc2c1 (centres undefined)

MIC [20]: 0.2 µg/mL (≈ 0.724 µM) | MIC [21]: 0.2 µg/mL (≈ 0.724 µM)
Structure (SMILES): Cc1ccc2cc(-c3cc4ccccc4oc3=O)oc2c1

MIC [6]: 250 µg/mL (≈ 445 µM) | MIC [7]: 250 µg/mL (≈ 445 µM)
Structure (SMILES): Cc1cc(=O)oc2cc(OC(=O)CNC3N=C(c4ccc(F)cc4)C=C(c4ccc(O)cc4)S3)c([N+](=O)[O-])cc12 (centres undefined)

MIC [16]: > 70 µg/mL | MIC [17]: > 70 µg/mL
Structure (SMILES): O=c1oc2ccccc2cc1C1=NNC(c2ccc(-c3ccccc3)c(-c3ccccc3)c2)C1 (centres undefined)

MIC [8]: 100 µg/mL (≈ 272 µM) | MIC [9]: 200 µg/mL (≈ 544 µM)
Structure (SMILES): COc1ccc(-n2cc(COc3cc(=O)oc4ccccc34)nn2)cc1F

MIC [20]: 0.2 µg/mL (≈ 0.511 µM) | MIC [21]: 0.8 µg/mL (≈ 2.04 µM)
Structure (SMILES): O=c1oc2ccc(Br)cc2cc1-c1cc2ccc3ccccc3c2o1

MIC [6]: 200 µg/mL (≈ 355 µM) | MIC [7]: 125 µg/mL (≈ 222 µM)
Structure (SMILES): Cc1cc(=O)oc2cc(OC(=O)CNC3N=C(c4ccc(F)cc4)C=C(c4ccc(F)cc4)S3)c([N+](=O)[O-])cc12 (centres undefined)
